In the supplement of paper PMC10307832:

Assays:
Assay in all cases: relative viability (nuclei count vs DMSO), 5 days (fraction); higher = more cells survive
AZ505 + OSI-027 = compound: C1CCC(CC1)N(CCNCCC2=C3C(=C(C=C2)O)NC(=O)CO3)C(=O)CCNCCC4=CC(=C(C=C4)Cl)Cl [AZ505] + COc1cccc2cc(-c3nc([C@H]4CC[C@H](C(=O)O)CC4)n4ncnc(N)c34)[nH]c12 [OSI-027] (partner 0.5 µM)
Procedure, shortened: (§1)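 The day after seeding in 1536-well plates, lung cancer cell lines were treated by pin tool with a single drug, or with a fixed anchor-drug dose together with five library-drug doses (not always all listed) in √10 steps. After 5 days, a combined fix-and-stain solution (final 0.05% Triton X-100, 1% formaldehyde, 1 ug/ml Hoechst) was added. Nuclei counted on 4× images gave relative viability as treated counts over vehicle counts, reported as the median of duplicate plates.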

AZ505 + Crizotinib = compound: C1CCC(CC1)N(CCNCCC2=C3C(=C(C=C2)O)NC(=O)CO3)C(=O)CCNCCC4=CC(=C(C=C4)Cl)Cl [AZ505] + C[C@@H](Oc1cc(-c2cnn(C3CCNCC3)c2)cnc1N)c1c(Cl)ccc(F)c1Cl [Crizotinib] (partner 1 µM)
Procedure, shortened: as §1

AZ505 + Decitabine = compound: C1CCC(CC1)N(CCNCCC2=C3C(=C(C=C2)O)NC(=O)CO3)C(=O)CCNCCC4=CC(=C(C=C4)Cl)Cl [AZ505] + Nc1ncn([C@H]2C[C@H](O)[C@@H](CO)O2)c(=O)n1 [Decitabine] (partner 2 µM)
Procedure, shortened: as §1

Dactolisib + OSI-027 = compound: Cn1c(=O)n(-c2ccc(C(C)(C)C#N)cc2)c2c3cc(-c4cnc5ccccc5c4)ccc3ncc21 [Dactolisib] + COc1cccc2cc(-c3nc([C@H]4CC[C@H](C(=O)O)CC4)n4ncnc(N)c34)[nH]c12 [OSI-027] (partner 0.5 µM)
Procedure, shortened: as §1

Row | Cell Line | relative viability (AZ505 + OSI-027; first compound 0.08 µM) | relative viability (AZ505 + OSI-027; first compound 0.253 µM) | relative viability (AZ505 + OSI-027; first compound 0.8 µM) | relative viability (AZ505 + OSI-027; first compound 2.53 µM) | relative viability (AZ505 + OSI-027; first compound 8 µM) | relative viability (AZ505 + Crizotinib; first compound 0.08 µM) | relative viability (AZ505 + Crizotinib; first compound 0.253 µM) | relative viability (AZ505 + Crizotinib; first compound 0.8 µM) | relative viability (AZ505 + Crizotinib; first compound 2.53 µM) | relative viability (AZ505 + Crizotinib; first compound 8 µM) | relative viability (AZ505 + Decitabine; first compound 0.08 µM) | relative viability (AZ505 + Decitabine; first compound 0.253 µM) | relative viability (AZ505 + Decitabine; first compound 0.8 µM) | relative viability (AZ505 + Decitabine; first compound 2.53 µM) | relative viability (AZ505 + Decitabine; first compound 8 µM) | relative viability (Dactolisib + OSI-027; first compound 0.002 µM) | relative viability (Dactolisib + OSI-027; first compound 0.006325 µM) | relative viability (Dactolisib + OSI-027; first compound 0.02 µM) | relative viability (Dactolisib + OSI-027; first compound 0.06325 µM) | relative viability (Dactolisib + OSI-027; first compound 0.2 µM)
1 | HCC-827 | 0.691 | 0.844 | 0.753 | 0.846 | 0.847 | 0.865 | 0.854 | 0.913 | 0.918 | 0.948 | 0.325 | 0.313 | 0.324 | 0.37 | 0.351 | 0.8 | 0.774 | 0.787 | 0.826 | 0.759
2 | LK-2 | 0.238 | 0.206 | 0.232 | 0.229 | 0.2 | 0.234 | 0.237 | 0.211 | 0.21 | 0.215 | 0.22 | 0.32 | 0.331 | 0.33 | 0.329 | 0.176 | 0.205 | 0.213 | 0.207 | 0.159
3 | HCC-366 | 0.817 | 0.635 | 0.948 | 0.764 | 0.924 | 0.418 | 0.365 | 0.551 | 0.396 | 0.534 | 0.342 | 0.344 | 0.316 | 0.316 | 0.341 | 0.924 | 0.863 | 0.889 | 0.469 | 0.556
4 | BEN | 0.287 | 0.274 | 0.259 | 0.304 | 0.309 | 0.789 | 0.889 | 0.854 | 0.816 | 1.07 | 0.714 | 0.655 | 0.752 | 0.768 | 0.78 | 0.302 | 0.33 | 0.302 | 0.32 | 0.315
5 | NCI-H23 | 0.54 | – | 0.609 | 0.71 | 0.563 | 0.502 | – | 0.443 | 0.638 | 0.557 | 0.284 | 0.326 | 0.327 | 0.306 | 0.311 | 0.683 | 0.577 | 0.564 | 0.308 | 0.385
6 | 201T | 0.688 | 0.721 | 0.813 | 0.91 | 0.764 | 0.986 | 1.03 | 0.932 | 1.01 | 1.02 | 0.857 | 0.863 | 0.812 | 0.877 | 0.824 | 0.715 | 0.749 | 0.682 | 0.747 | 0.509
7 | NCI-H2170 | 0.743 | 0.677 | 0.684 | 0.738 | 0.793 | 1.07 | 1.24 | 1.12 | 1.26 | 1.22 | 0.469 | 0.466 | 0.422 | 0.482 | 0.453 | 0.763 | 0.639 | 0.689 | 0.543 | 0.37
8 | NCI-H460 | 0.636 | 0.71 | 0.57 | 0.57 | 0.845 | 0.78 | 1.08 | 0.898 | 0.784 | 0.782 | 0.481 | 0.525 | 0.461 | 0.584 | 0.521 | 0.829 | 0.661 | 0.615 | 0.119 | 0.153
9 | NCI-H661 | 0.681 | 0.8 | 0.666 | 0.695 | 0.715 | – | 0.941 | – | 0.977 | 0.942 | 0.54 | 0.575 | 0.522 | 0.575 | 0.582 | 0.701 | 0.759 | 0.652 | 0.366 | 0.339
10 | HCC-15 | 0.612 | 0.624 | 0.596 | 0.594 | 0.726 | 0.791 | 0.908 | 0.772 | 0.844 | 0.823 | 0.566 | 0.627 | 0.587 | 0.705 | 0.678 | 0.686 | 0.678 | 0.683 | 0.473 | 0.317
11 | ABC-1 | 0.469 | 0.325 | 0.521 | 0.493 | 0.558 | 1.01 | 1.12 | 1.19 | 1.21 | 1.24 | 1.07 | – | 1.11 | 0.938 | 1.04 | 0.494 | 0.519 | 0.569 | 0.43 | 0.349
12 | LCLC-103H | 0.447 | 0.472 | 0.447 | 0.496 | 0.476 | 0.868 | 1.03 | 0.987 | 1.01 | 0.969 | 0.73 | 0.674 | 0.707 | 0.751 | 0.702 | 0.509 | 0.5 | 0.465 | 0.519 | 0.431
13 | NCI-H441 | 0.66 | 0.595 | 0.614 | 0.579 | 0.703 | 0.615 | 0.823 | 0.995 | 0.699 | 0.738 | 0.287 | 0.245 | 0.232 | 0.25 | 0.264 | 0.915 | 0.725 | 0.716 | 0.44 | 0.344
14 | EPLC-272H | – | 0.251 | 0.22 | 0.263 | 0.283 | 0.714 | 0.865 | 0.927 | 0.985 | 0.934 | 0.35 | 0.352 | 0.305 | 0.343 | 0.354 | 0.34 | 0.288 | 0.356 | 0.334 | 0.3
